Source: publication PMC12481569, “Novltex: A New Class of Antibiotics with Potent Activity against Multidrug-Resistant Bacterial Pathogens–Design, Synthesis, and Biological Evaluation” (Journal of Medicinal Chemistry, 2025)
Positions of bridges follow the written chain, without caps; N, C: chain ends. Non-standard residues stand in square brackets, D forms with d. Residues, ends and D or L forms follow the SMILES beside them. dCha = N[C@H](CC1CCCCC1)C(=O)O

Test system: human primary dermal fibroblasts
Assay: Cytotoxicity, MTS-based assay
Format: cell-based
Settings: up to 50 μg/mL, 24 or 48 h, three independent experiments in triplicate
Protocol: 4 Cytotoxicity evaluation of analogue 12. Human primary dermal fibroblasts (A), liver cell line HepG2 (B), and kidney cell line HEK293T (C) cells (5 × 10^3 cells/well in 96-well plates) were treated with increasing concentrations of analogue 12 or 1 μM staurosporine (STS, used as a positive toxicity control) for 24 or 48 h, as indicated. Viability of cells was determined using an MTS-based assay. Results (% cell viability) are the mean ± SD of three independent experiments performed in triplicate. (D) Freshly collected human red blood cells (RBCs) were exposed to increasing concentrations of 12 or Triton X-100 (TX), as indicated, for 1 h. Hemolytic activity (% hemolysis) was determined by spectrophotometrically measuring the release of hemoglobin compared to that with TX (used as a positive control). Results are the mean ± SD of 4 independent experiments performed in duplicate using blood samples from four different anonymous healthy donors. […]
Bacterial cultures were grown overnight on Mueller-Hinton Agar (MHA) plates and adjusted to a final inoculum of 10^5 – 10^6 CFU/mL. […] MIC values were determined in the media contain ing polysorbate 80 (0.002%, v/v) to prevent non -specific adsorption of the peptides to plastic surfaces. […] All the experiments were performed in two independent duplicates and the MIC was determined as the lowest concentration in which no visible growth was observed. […]

CC(C)C[C@@H]1NC(=O)[C@H](C)NC(=O)[C@H](NC(=O)[C@H](CO)NC(=O)[C@@H](CCCCN)NC(=O)[C@@H](CC2CCCCC2)NC(=O)[C@@H](N)Cc2ccccc2)[C@H](C)OC(=O)[C@H](CC(C)C)NC1=O [analogue 12, Leu2Cha–Novltex] (H-F[dCha][dK]S[dT]ALL; ester 5-C)
cytotoxicity (cell viability), primary dermal fibroblasts: no major cytotoxicity
